According to PMC8465942, “Cyano- and Ketone-Containing Selenoesters as Multi-Target Compounds against Resistant Cancers” (Cancers, 2021):
Entries after “also recorded” stand apart in the source; their conditions may differ. Marks after values point to notes of the source that are not given here.

Columns and labels:
[1] = system: resistant Colo 320 colon adenocarcinoma cells expressing the ABCB1 transporter; experiment: Checkerboard combination assay with doxorubicin; format: cell-based, human; settings: for Interaction with doxorubicin: in at least one of the ratios tested
Procedure: A checkerboard microplate method was applied to study the effect of drug interactions between the selenocompounds and the chemotherapeutic drug doxorubicin on resistant Colo 320 colon adenocarcinoma cells expressing the ABCB1 transporter. Results were expressed in terms of the combination index (CI) values at 50% growth inhibition (ED50), which were determined by using CompuSyn software to plot 4 or 5 data points for each ratio.
To perform the experiment, the dilutions of doxorubicin were made in a horizontal direction in 100 µL, and the dilutions of the Se-compounds were made vertically in the microtiter plate in a volume of 50 µL. The cells were re-suspended in the culture medium and distributed into each well in 50 µL portions containing 6000 cells. The plates were incubated for 72 h at 37 °C in a CO2 incubator. The cell growth rate was determined after MTT staining. At the end of the incubation period, 20 μL of MTT solution was added to each well. After incubation at 37 °C for 4 h, 100 μL of SDS was added to each well and the plates were further incubated at 37 °C overnight. The optical density (OD) was measured at 540/630 nm with the Multiscan EX ELISA reader.

[2] = system: HeLa (cervical adenocarcinoma); experiment: Cytotoxicity on HeLa cells; format: cell-based; settings: Homo sapiens
Procedure: The activity of selenoesters was tested on several cancer cell lines, including HepG2 (hepatocellular carcinoma, CCL-23TM, ATCC); HeLa (cervical adenocarcinoma, CCL-2TM, ATCC); B16 (skin melanoma, CCL-6322TM, ATCC); and a non-cancerous cell line, HDF (human dermal fibroblasts, Sigma-Aldrich). HepG2, HeLa, B16, and HDF cell lines were cultivated in EMEM medium supplemented with 10% FBS, 2 mM L-glutamine, and 1% penicillin-streptomycin mixture. The HaCaT cell line was cultivated in DMEM medium supplemented with 10% FBS and 1% penicillin-streptomycin mixture. All of the cells were cultivated in a CO2 incubator (5% CO2, 37 °C). Twice per week, the cell lines were passaged according to a standardized protocol with a trypsin-EDTA solution.
The selectivity indexes (SI) were calculated as the ratio of the IC50 value in the non-tumour cells and the IC50 in the cancer cell lines. The compound’s activity towards cancer cells is considered as strongly selective if the selectivity index (SI) value is higher than 6, moderately selective if 3 < SI < 6, slightly selective if 1 < SI < 3, and non-selective if SI is lower than 1 [16].

[3] = system: Colo 205 human colonic adenocarcinoma cell line; experiment: Cytotoxicity (MTT) on sensitive Colo 205 cells; format: cell-based; settings: for IC50: Homo sapiens, COLO 205, 24 h, MTT, read-out: Colo 205 (IC50 µM) Mean; for SI MRC-5/Colo 205: ratio IC50 non-tumour cells / IC50 cancer cells
Method in brief: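 10^4 cells/well in RPMI-1640 were exposed to two-fold serial dilutions (0.19–100 μM) for 24 h at 37 °C. MTT was added for 4 h, then SDS/HCl overnight, with OD read at 540 nm (ref. 630 nm). IC50 = dose giving 50% growth reduction, from non-linear regression of triplicates.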

B16 (skin melanoma) = experiment: Cytotoxicity on B16 cells; format: cell-based, murine; settings: ratio IC50 non-tumour cells / IC50 cancer cells
[4] = system: HepG2 (hepatocellular carcinoma); experiment: Cytotoxicity on HepG2 cells; format: cell-based, human; settings: ratio IC50 non-tumour cells / IC50 cancer cells

Which Interaction with doxorubicin [1] does the source give for `N#CC[Se]C(=O)c1cccc(F)c1` [N2, Se-(Cyanomethyl) 3-Fluorobenzoselenoate] here?
Its Interaction with doxorubicin is “synergistic manner; also recorded: synergistic effect”.

What about the “Type of Interaction” value ([1]; ratio 1.7:1, starting conc. 15 µM) of the same compound?
Its value is “Synergism”.

What about the “Type of Interaction” value ([1]; ratio 3.4:1, starting conc. 15 µM) of the same compound?
The value was “Antagonism”.

And the “Type of Interaction” value ([1]; ratio 6.8:1, starting conc. 15 µM)?
Its value is “Synergism”.

What about the “Type of Interaction” value ([1]; ratio 13.6:1, starting conc. 15 µM) of the same compound?
The value was “Moderate antagonism”.

What about the “Type of Interaction” value ([1]; ratio 27.2:1, starting conc. 15 µM) of the same compound?
The value was “Antagonism”.

What about the “Type of Interaction” value ([1]; ratio 54.4:1, starting conc. 15 µM) of the same compound?
The value was “Antagonism”.

What about the IC50 [2] of the same compound?
Its IC50 is 5.2 µM.

What about the IC50 [3] of the same compound?
The IC50 was 2.96 µM.

What about the “SI MRC-5/Colo 205” value [3] of the same compound?
The value was >6 *.

What about the “SI MRC-5/B16” value (B16 (skin melanoma)) of the same compound?
The value was >6 *.

And the “SI MRC-5/HepG2” value [4]?
Its value is >6 *.

Which Interaction with doxorubicin [1] does the source give for `CC(=O)C[Se]C(=O)c1cc(F)c(F)cc1F` [K8, Se-(2-Oxopropyl) 2,4,5-Trifluorobenzoselenoate] here?
Its Interaction with doxorubicin is “synergistic manner; also recorded: interact synergistically”.

And the “Type of Interaction” value ([1]; ratio 0.7:1, starting conc. 6 µM)?
Its value is “Strong synergism”.

What about the “Type of Interaction” value ([1]; ratio 1.4:1, starting conc. 6 µM) of the same compound?
Its value is “Antagonism”.

What about the “Type of Interaction” value ([1]; ratio 2.8:1, starting conc. 6 µM) of the same compound?
Its value is “Antagonism”.

What about the “Type of Interaction” value ([1]; ratio 5.6:1, starting conc. 6 µM) of the same compound?
Its value is “Antagonism”.

What about the “Type of Interaction” value ([1]; ratio 11.2:1, starting conc. 6 µM) of the same compound?
Its value is “Antagonism”.

And the IC50 [2]?
Its IC50 is 2 µM.

What about the IC50 [3] of the same compound?
The IC50 was 2.24 µM.

What about the “SI MRC-5/Colo 205” value [3] of the same compound?
Its value is 1.12.

What about the “SI MRC-5/B16” value (B16 (skin melanoma)) of the same compound?
Its value is 1.8.

And the “SI MRC-5/HepG2” value [4]?
The value was 0.6.

`N#CC[Se]C(=O)c1ccc(Br)cc1` [N3, Se-(Cyanomethyl) 4-Bromobenzoselenoate] was tested. Which Interaction with doxorubicin [1] did it give?
The Interaction with doxorubicin was “synergistic manner; also recorded: synergistic effect”.

What about the “Type of Interaction” value ([1]; ratio 1.2:1, starting conc. 10 µM) of the same compound?
The value was “Antagonism”.

What about the “Type of Interaction” value ([1]; ratio 2.4:1, starting conc. 10 µM) of the same compound?
The value was “Strong antagonism”.

And the “Type of Interaction” value ([1]; ratio 4.8:1, starting conc. 10 µM)?
The value was “Moderate synergism”.

What about the “Type of Interaction” value ([1]; ratio 9.6:1, starting conc. 10 µM) of the same compound?
The value was “Additive effect”.

What about the “Type of Interaction” value ([1]; ratio 19.2:1, starting conc. 10 µM) of the same compound?
Its value is “Slight antagonism”.

What about the “Type of Interaction” value ([1]; ratio 38.4:1, starting conc. 10 µM) of the same compound?
Its value is “Moderate antagonism”.

And the IC50 [2]?
The IC50 was 2.4 µM.

What about the IC50 [3] of the same compound?
The IC50 was 2.1 µM.

What about the “SI MRC-5/Colo 205” value [3] of the same compound?
Its value is >6 *.

What about the “SI MRC-5/B16” value (B16 (skin melanoma)) of the same compound?
Its value is >6 *.

And the “SI MRC-5/HepG2” value [4]?
The value was >6 *.
